Assay [1] relates to MDA-MB-231 (breast). The assay can be described thus: SRB growth inhibition assay, MDA-MB-231. Type of assay: cell-based, Human. The settings on record: Homo sapiens, MDA-MB-231, 96 hours incubation, read-out: Inhibition of cell growth (IC50, μM) MDA-MB-231. An excerpt: (§1) Cancer cells used in this study to determine the effect of tetrahydroisoquinolin-2-yl-(quinazolin-4-yl)methanone compounds were obtained from the following sources: Human OVCAR-3 (ovary), SK-MEL-28 (melanoma), MDA-MB-231 (breast), HeLa (cervix), PC3 (prostate), HepG2 (liver), A549 (lung), Caki-1 (kidney), HCT116 (colon) and PANC-1 (pancreas) from the American Type Culture Collection (ATCC) (Manassas, Va.); U251 (brain) from Riken (Japan); MKN-45 (stomach) from DSMZ (Germany). All cell lines except MDA-MB-231, HCT116, Caki-1 and PANC-1 were grown in RPMI1640 medium (Invitrogen, Carlsbad, Calif.) supplemented with 10% fetal bovine serum (“FBS”), 1 mM sodium pyruvate, 10 mM HEPES and 100 U/ml penicillin and 100 μg/ml streptomycin (“P/S”). MDA-MB-231, HCT116, Caki-1 and PANC-1 cells were maintained in Dulbecco's modified Eagle's medium (“DMEM”, Invitrogen) supplemented with 10% FBS, P/S, 10 mM HEPES and 2 mM L-glutamine. All cells were incubated at 37° C. under humidified 5% CO2.
(§2) The growth inhibition of the tetrahydroisoquinolin-2-yl-(quinazolin-4-yl)methanone compounds against a variety of human tumor cells was evaluated to study the relative importance of particular substituent groups on the compounds. The tetrahydroisoquinolin-2-yl-(quinazolin-4-yl)methanone compounds, prepared as described above, were tested with DMSO as a control.
(§3) The growth inhibition assay of representative tetrahydroisoquinolin-2-yl-(quinazolin-4-yl)methanone derivatives against human tumor cell lines was performed using the Sulforhodamine B (“SRB”) method (Skehan et al., J. National Cancer Institute, 82: 1107-1112 (1990)). Briefly, exponentially growing tumor cells were seeded into a 96-well plate at a density of 2-3×10^3 cells/well and treated with tetrahydroisoquinolin-2-yl-(quinazolin-4-yl)methanone compounds the next day. Triplicate wells were used for each treatment. The cells were incubated with the various compounds for 96 hours at 37° C. in a humidified 5% CO2 atmosphere. After 96-hour incubation, cells were fixed with 10% trichloroacetic acid (“TCA”), incubated for 1 hour at 4° C., and washed 3 times with tap water. Subsequently, cells were stained with 0.4% sulforhodamine B in 1% acetic acid for 30 minutes, washed 4 times with 1% acetic acid, and air-dried again After 5 minutes agitation in 10 mM Tris solution, the absorbance of each well was measured at 530 nm using Benchmark Plus Microplate reader (Bio-Rad Laboratories, Hercules, Calif.).
(§4) To translate the OD530 values into the number of live cells in each well, the OD530 values were compared to those on standard OD530-versus-cell number curves generated for each cell line. The percent survival was calculated using the formula: % Survival=live cell number [test]/live cell number [control]×100
(§5) The IC50 values were calculated by non-linear regression analysis.
(§6) The compounds were screened against at […] including PANC-1, MDA-MB-231, HCT116 and Caki-1, at approximately 1 μM concentration. The inhibition of cell growth (IC50, μM) of some tetrahydroisoquinolin-2-yl-(quinazolin-4-yl)methanone compounds are shown in Table 2.

For assay [2], the system named is HCT116 (colon). Nature of the assay: SRB growth inhibition assay, HCT116. Type of assay: cell-based, Human. The settings on record: Homo sapiens, HCT-116, 96 hours incubation, read-out: Inhibition of cell growth (IC50, μM) HCT116.
Excerpt: as §1, §2, §3, §4, §5, §6

Assay [3] concerns Caki-1 (kidney). The assay can be described thus: SRB growth inhibition assay, Caki-1. Type of assay: cell-based, Human. The conditions noted are these: Homo sapiens, CAKI-1, 96 hours incubation, read-out: Inhibition of cell growth (IC50, μM) Caki-1.
Excerpt: as §1, §2, §3, §4, §5, §6

Assay [4] deals with PANC-1 (pancreas). The assay can be described thus: SRB growth inhibition assay, PANC-1. Type of assay: cell-based, Human. The conditions noted are these: Homo sapiens, PANC-1, 96 hours incubation, read-out: Inhibition of cell growth (IC50, μM) Panc-1.
Excerpt: as §1, §2, §3, §4, §5, §6

The test system of assay [5] is MKN-45 (stomach). Nature of the assay: SRB growth inhibition assay, MKN-45. Type of assay: cell-based. The settings on record: Homo sapiens, 96 hours incubation, read-out: Inhibition of cell growth (IC50, μM) MKN-45.
Excerpt: as §1, §2, §3, §4, §5

The test system of assay [6] is SK-MEL-28 (melanoma). Nature of the assay: SRB growth inhibition assay, SK-MEL-28. Type of assay: cell-based. The settings on record: Homo sapiens, 96 hours incubation, read-out: Inhibition of cell growth (IC50, μM) SK-MEL-28.
Excerpt: as §1, §2, §3, §4, §5

Assay [7] deals with HeLa (cervix). Nature of the assay: SRB growth inhibition assay, HeLa. Type of assay: cell-based. The settings on record: Homo sapiens, 96 hours incubation, read-out: Inhibition of cell growth (IC50, μM) HeLa.
Excerpt: as §1, §2, §3, §4, §5

Assay [8] has as its system OVCAR-3 (ovary). The assay can be described thus: SRB growth inhibition assay, OVCAR-3. Type of assay: cell-based. The settings on record: Homo sapiens, 96 hours incubation, read-out: Inhibition of cell growth (IC50, μM) Ovcar3.
Excerpt: as §1, §2, §3, §4, §5

Assay [9] deals with U251 (brain). Nature of the assay: SRB growth inhibition assay, U251. Type of assay: cell-based. The conditions noted are these: Homo sapiens, U-251, 96 hours incubation, read-out: Inhibition of cell growth (IC50, μM) U251.
Excerpt: as §1, §2, §3, §4, §5

In assay [10] the test system is HepG2 (liver). The assay can be described thus: SRB growth inhibition assay, HepG2. Type of assay: cell-based. The settings on record: Homo sapiens, 96 hours incubation, read-out: Inhibition of cell growth (IC50, μM) HepG2.
Excerpt: as §1, §2, §3, §4, §5

The test system of assay [11] is A549 (lung). Nature of the assay: SRB growth inhibition assay, A549. Type of assay: cell-based. The conditions noted are these: Homo sapiens, 96 hours incubation, read-out: Inhibition of cell growth (IC50, μM) A549.
Excerpt: as §1, §2, §3, §4, §5

The test system of assay [12] is PC3 (prostate). Nature of the assay: SRB growth inhibition assay, PC3. Type of assay: cell-based. The conditions noted are these: Homo sapiens, 96 hours incubation, read-out: Inhibition of cell growth (IC50, μM) PC-3.
Excerpt: as §1, §2, §3, §4, §5

As usually defined, the IC50 is the concentration that inhibits the measured activity by half. Regarding `COc1ccc2c(c1)CCN(C(=O)c1nc(-c3ccc(F)cc3)nc3ccccc13)C2` [Compound 7, 2-[[2-(4-fluorophenyl)quinazolin-4-yl]carbonyl]-6-methoxy-1,2,3,4-tetrahydroisoquinoline], the IC50 was determined as 0.9 µM in [1]; 1.1 µM in [2]; 0.61 µM in assay [3]; 0.53 µM in [4]; 0.19 µM in assay [5]; 0.36 µM in [6]. The IC50 amounted to 0.24 µM in [7], 0.16 µM in [8], 0.64 µM in assay [9] and 0.72 µM in assay [10].

Turning to `COc1ccc2c(c1O)CCN(C(=O)c1nc(-c3ccccc3)nc3ccccc13)C2` [Compound 17, 2-[[2-phenylquinazolin-4-yl]carbonyl]-5-hydroxy-6-methoxy-1,2,3,4-tetrahydroisoquinoline], the IC50 is 0.066 µM in assay [1]; 0.081 µM in assay [2]; 0.057 µM in assay [3]; 0.062 µM in assay [4]; 0.063 µM in assay [5]; 0.069 µM in assay [6]. Besides, the IC50 in [7] worked out at 0.074 µM; in assay [8], 0.074 µM; in assay [9] it was 0.067 µM; in [10], 0.14 µM; in assay [11], 0.15 µM; in [12] it was 0.076 µM.

Regarding `COc1ccc2c(c1O)CCN(C(=O)c1nc(-c3cccc(C(F)(F)F)c3)nc3ccccc13)C2` [Compound 52, 2-[[2-(3-(trifluoromethyl)phenyl)quinazolin-4-yl]carbonyl]-5-hydroxy-6-methoxy-1,2,3,4-tetrahydroisoquinoline], the IC50 in assay [1] was 1.62 µM; in assay [2], 2.67 µM; in assay [3], 1.91 µM; in assay [4] it was 2.51 µM.

Take `COc1ccc2c(c1O)CCN(C(=O)c1nc(-c3ccc(F)cc3F)nc3ccccc13)C2` [Compound 57, 2-[[2-(2,4-difluorophenyl)quinazolin-4-yl]carbonyl]-5-hydroxy-6-methoxy-1,2,3,4-tetrahydroisoquinoline]: the IC50 in assay [1] came to 0.17 µM; in assay [2] it was 0.22 µM; in [3] it was 0.21 µM; in assay [4], 0.19 µM; in assay [6], 0.2 µM; in [8], 0.23 µM. The results for the IC50 in assay [9], in assay [10] and in assay [12] were 0.17 µM, 0.31 µM and 0.21 µM, respectively.

Turning to `Cc1ccc2c(c1O)CCN(C(=O)c1nc(-c3ccc(F)cc3F)nc3ccccc13)C2` [Compound 61, 2-[[2-(2,4-difluorophenyl)quinazolin-4-yl]carbonyl]-5-hydroxy-6-methyl-1,2,3,4-tetrahydroisoquinoline], the IC50 came to 1.84 µM in [1], 2.76 µM in assay [2], 2.47 µM in [3] and 2.31 µM in [4].

For `COc1ccc2c(c1O)CCN(C(=O)c1nc(-c3ccc(NC(C)=O)cc3)nc3ccccc13)C2` [Compound 62, 2-[[2-(4-acetamidophenyl)quinazolin-4-yl]carbonyl]-5-hydroxy-6-methoxy-1,2,3,4-tetrahydroisoquinoline], the IC50 in assay [1] is 0.2 µM; in [2], 0.34 µM; in assay [3], 0.2 µM; in assay [4], 0.21 µM.

Consider `CC(=O)Nc1ccc(-c2nc(C(=O)N3CCc4c(ccc(C)c4O)C3)c3ccccc3n2)cc1` [Compound 64, 2-[[2-(4-acetamidophenyl)quinazolin-4-yl]carbonyl]-5-hydroxy-6-methyl-1,2,3,4-tetrahydroisoquinoline], for which the IC50 in assay [1] turned out to be 0.52 µM; in assay [2] it was 0.89 µM; in [3], 0.63 µM; in [4], 0.68 µM.

`COc1ccc2c(c1OC)CCN(C(=O)c1nc(-c3ccncn3)nc3ccccc13)C2` [Compound 72, 2-[[2-(4-pyrimidinyl)quinazolin-4-yl]carbonyl]-5,6-dimethoxy-1,2,3,4-tetrahydroisoquinoline]: the IC50 in assay [1] was 0.46 µM; in assay [2] it was 0.55 µM; in [3], 0.39 µM; in [4], 0.49 µM.

In the case of `Cc1ccc2c(c1O)CCN(C(=O)c1nc(-c3ccncn3)nc3ccccc13)C2` [Compound 73, 2-[[2-(4-pyrimidinyl)quinazolin-4-yl]carbonyl]-5-hydroxy-6-methyl-1,2,3,4-tetrahydroisoquinoline], the concentration for half-maximal inhibition (IC50) turned out to be 0.21 µM in [1], 0.26 µM in assay [2], 0.19 µM in assay [3] and 0.2 µM in assay [4].

As for `COc1ccc2c(c1O)CCN(C(=O)c1nc(-c3cscn3)nc3ccccc13)C2` [Compound 79, 2-[[2-(4-thiazolyl)quinazolin-4-yl]carbonyl]-5-hydroxy-6-methoxy-1,2,3,4-tetrahydroisoquinoline], the IC50 in [1] came out at 0.17 µM; in assay [2], 0.2 µM; in assay [3], 0.16 µM; in [4] it was 0.17 µM.

For `COc1ccc2c(c1OC)CCN(C(=O)c1nc(-c3cscn3)nc3ccccc13)C2` [Compound 81, 2-[[2-(4-thiazolyl)quinazolin-4-yl]carbonyl]-5,6-dimethoxy-1,2,3,4-tetrahydroisoquinoline], the IC50 in assay [1] came out at 1 µM; in assay [2] it was 1.26 µM; in assay [3], 1.21 µM; in [4], 1.43 µM.

Regarding `Cc1ccc2c(c1O)CCN(C(=O)c1nc(-c3cscn3)nc3ccccc13)C2` [Compound 83, 2-[[2-(4-thiazolyl)quinazolin-4-yl]carbonyl]-5-hydroxy-6-methyl-1,2,3,4-tetrahydroisoquinoline], the 50% inhibitory concentration (IC50) stood at 0.21 µM in assay [1], 0.29 µM in [2], 0.25 µM in [3] and 0.23 µM in [4].

Regarding `Cc1ccc2c(c1O)CCN(C(=O)c1nc(-c3cccnc3)nc3ccccc13)C2` [Compound 88, 2-[[2-(3-pyridinyl)quinazolin-4-yl]carbonyl]-5-hydroxy-6-methyl-1,2,3,4-tetrahydroisoquinoline], the IC50 in [1] turned out to be 0.67 µM; in assay [2], 1.12 µM; in assay [3], 0.97 µM; in [4], 0.93 µM.

Turning to `COc1ccc2c(c1O)CCN(C(=O)c1nc(-c3ccc(F)cc3)nc3ccc(F)cc13)C2` [Compound 97, 2-[[6-fluoro-2-(4-fluorophenyl)quinazolin-4-yl]carbonyl]-5-hydroxy-6-methoxy-1,2,3,4-tetrahydroisoquinoline], the IC50 in [1] is 0.16 µM; in [2], 0.17 µM; in assay [3] it was 0.11 µM; in assay [4], 0.13 µM; in assay [5] it was 0.087 µM; in [6], 0.11 µM. The IC50 in assay [7] was found to be 0.16 µM; in assay [8] it was 0.073 µM; in assay [9], 0.13 µM; in assay [10], 0.18 µM.

Values taken from patent US9713615B2, “Tetrahydroisoquinolin-2-yl-(quinazolin-4-yl)methanone compounds” (Rexahn Pharmaceuticals, Inc., priority 2013, dated 2017).
